Assay results as given in ChEMBL document CHEMBL1201862, “PubChem BioAssay data set” (2004).
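Values below derive from 48-hour exposures of cells grown in 96-well plates, with endpoints linearly interpolated between the two concentrations bracketing the appropriate inhibition level. GI50 is the concentration that inhibits growth by half.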 Activity calls are given as the source filed them. Cut-off read from the data, not from the text of the source: active = GI50 up to about 1.1 µM and inactive = higher.

Experiments:
Assay in all cases: NCI anticancer screen, dose series, 48 h
[1] = system: NCI-H23
[2] = system: M14
[3] = system: OVCAR-3
[4] = system: COLO 205
[5] = system: A498
[6] = system: PC-3
[7] = system: OVCAR-4
[8] = system: SK-OV-3
[9] = system: HCT-116
[10] = system: OVCAR-5
[11] = system: HT-29
[12] = system: UACC-257
[13] = system: UACC-62
[14] = system: CCRF-CEM
[15] = system: MCF7
[16] = system: OVCAR-8
[17] = system: MDA-MB-231
[18] = system: NCI-H522
[19] = system: SR

SMILES	GI50 [1]	GI50 [2]	GI50 [3]	GI50 [4]	GI50 [5]	GI50 [6]	GI50 [7]	GI50 [8]	GI50 [9]	GI50 [10]	GI50 [11]	GI50 [12]	GI50 [13]	GI50 [14]	GI50 [15]	GI50 [16]	GI50 [17]	GI50 [18]	GI50 [19]
CC(=O)NCC1OC2COC(c3ccccc3)OC2C2N=C(c3ccccc3)OC12 (configuration not stated)	> 100 µM (inactive)	60.8 µM (inactive)	76 µM (inactive)	30.7 µM (inactive)	37.4 µM (inactive)	24.9 µM (inactive)	85.9 µM (inactive)	74.1 µM (inactive)	38.4 µM (inactive)	> 100 µM (inactive)	34.8 µM (inactive)	57.5 µM (inactive)	45.7 µM (inactive)	35.4 µM (inactive)	41.9 µM (inactive)	57 µM (inactive)	> 100 µM (inactive)		
CC(=O)CC1CCC(=O)CCC(=O)OC(CC(C)=O)CCC(=O)CCC(=O)O1 (configuration not stated)	> 100 µM (inactive)	> 100 µM (inactive)	> 100 µM (inactive)	> 100 µM (inactive)		> 100 µM (inactive)	> 100 µM (inactive)	> 100 µM (inactive)	> 100 µM (inactive)	> 100 µM (inactive)	> 100 µM (inactive)	> 100 µM (inactive)	> 100 µM (inactive)	> 100 µM (inactive)	> 100 µM (inactive)	> 100 µM (inactive)	> 100 µM (inactive)	> 100 µM (inactive)	
Cc1cc(OCc2nnc3sc(NC(=O)c4ccccc4)nn23)ccc1Cl	30.7 µM (inactive)	27.4 µM (inactive)	30.7 µM (inactive)	53.5 µM (inactive)	27.2 µM (inactive)	33.7 µM (inactive)	> 100 µM (inactive)	59.6 µM (inactive)	28.7 µM (inactive)	56.8 µM (inactive)	38.4 µM (inactive)	37.7 µM (inactive)	33.3 µM (inactive)	43.3 µM (inactive)	30.3 µM (inactive)	20.7 µM (inactive)	42.4 µM (inactive)	30.6 µM (inactive)	
CCCCC1C=Cn2c(=O)oc3c(OC(C)C)c(OC(C)C)c(O)c1c32 (configuration not stated)	12.2 µM (inactive)	22.3 µM (inactive)	16.4 µM (inactive)	16.3 µM (inactive)	17.1 µM (inactive)	38.2 µM (inactive)	21.5 µM (inactive)	25.2 µM (inactive)	17.4 µM (inactive)	17.2 µM (inactive)	14.6 µM (inactive)	15.6 µM (inactive)	13.4 µM (inactive)	8.49 µM (inactive)	12.2 µM (inactive)	14.9 µM (inactive)	14.1 µM (inactive)	11.6 µM (inactive)	
C/C(=C\C(=N\NC(=N)N)c1ccccc1)c1ccccc1	0.354 µM (active)	1.17 µM (inactive)	0.409 µM (active)	0.0348 µM (active)		0.313 µM (active)	0.321 µM (active)	4.3 µM (inactive)	0.273 µM (active)	0.64 µM (active)	0.354 µM (active)		1.15 µM (inactive)	0.208 µM (active)	0.321 µM (active)	1.24 µM (inactive)		0.452 µM (active)	2.18 µM (inactive)
CCOC(=O)C(C)c1nc2ccc(C(F)(F)F)cc2[nH]c1=O (configuration not stated)	49.9 µM (inactive)	80 µM (inactive)	28 µM (inactive)	> 100 µM (inactive)	34 µM (inactive)	36.9 µM (inactive)	42.5 µM (inactive)	> 100 µM (inactive)	72.8 µM (inactive)	> 100 µM (inactive)	51.6 µM (inactive)	58.7 µM (inactive)	39.8 µM (inactive)	77.8 µM (inactive)	60.8 µM (inactive)	94.6 µM (inactive)	77.1 µM (inactive)		
O=c1oc2c(ccc3ccccc32)cc1C1=CSC2=NCCN12	53.8 µM (inactive)	50.2 µM (inactive)	31.6 µM (inactive)	50 µM (inactive)		71.4 µM (inactive)	44.5 µM (inactive)	67.3 µM (inactive)	32.4 µM (inactive)		45.3 µM (inactive)	56.1 µM (inactive)	> 100 µM (inactive)	30.5 µM (inactive)	21.8 µM (inactive)	54.7 µM (inactive)	38.3 µM (inactive)	30.3 µM (inactive)	34.4 µM (inactive)
Nc1nc(Cl)cc(NCC2(CO)CCC2)n1	> 100 µM (inactive)		> 100 µM (inactive)	> 100 µM (inactive)		> 100 µM (inactive)	> 100 µM (inactive)	> 100 µM (inactive)	> 100 µM (inactive)	> 100 µM (inactive)	> 100 µM (inactive)	> 10 µM (inactive)	99.3 µM (inactive)	> 100 µM (inactive)	> 100 µM (inactive)	> 100 µM (inactive)	> 100 µM (inactive)	> 100 µM (inactive)	> 100 µM (inactive)
Cc1ccc(-c2c(C#N)c(-c3ccccc3)c(C#N)c(=O)n2NS(=O)(=O)c2ccc(C)cc2)cc1		31 µM (inactive)		95.9 µM (inactive)	27.4 µM (inactive)	35 µM (inactive)	45.7 µM (inactive)	79.8 µM (inactive)	22.9 µM (inactive)	> 100 µM (inactive)	50.6 µM (inactive)	56.1 µM (inactive)	23.3 µM (inactive)	19.6 µM (inactive)	35.4 µM (inactive)	52.7 µM (inactive)	> 100 µM (inactive)	56.9 µM (inactive)	
C/C(=N\Nc1ccc([N+](=O)[O-])cc1[N+](=O)[O-])c1ccc2ccccc2n1	> 100 µM (inactive)	> 100 µM (inactive)		> 100 µM (inactive)		> 100 µM (inactive)		> 100 µM (inactive)	57.4 µM (inactive)	> 100 µM (inactive)	74.6 µM (inactive)	> 100 µM (inactive)	66.2 µM (inactive)		89.9 µM (inactive)	47.3 µM (inactive)	49.3 µM (inactive)	13.7 µM (inactive)	97.9 µM (inactive)
CSc1nc2c(c(N(C)C)n1)C(O)n1c(nc3ccccc31)S2 (configuration not stated)	31.3 µM (inactive)	> 65.3 µM (inactive)	29.2 µM (inactive)	> 100 µM (inactive)	> 100 µM (inactive)	> 100 µM (inactive)	4.95 µM (inactive)	16.5 µM (inactive)	23 µM (inactive)	> 100 µM (inactive)	> 100 µM (inactive)	> 100 µM (inactive)	> 85.9 µM (inactive)	> 100 µM (inactive)	47 µM (inactive)	14.6 µM (inactive)	28 µM (inactive)	12 µM (inactive)	
OCCSCCCSCCO	> 100 µM (inactive)	> 100 µM (inactive)	> 100 µM (inactive)	> 100 µM (inactive)		> 100 µM (inactive)	> 100 µM (inactive)	> 100 µM (inactive)	> 100 µM (inactive)	> 100 µM (inactive)	> 100 µM (inactive)	> 100 µM (inactive)	> 100 µM (inactive)	36.8 µM (inactive)	> 100 µM (inactive)	> 100 µM (inactive)	> 100 µM (inactive)	> 100 µM (inactive)	39.9 µM (inactive)
O=[N+]([O-])c1cccc(-c2ncc3c(n2)-c2ccccc2C3)c1	> 100 µM (inactive)	> 100 µM (inactive)		> 100 µM (inactive)		> 100 µM (inactive)	> 100 µM (inactive)	> 100 µM (inactive)	> 100 µM (inactive)	> 100 µM (inactive)	> 100 µM (inactive)	> 100 µM (inactive)	> 100 µM (inactive)	> 100 µM (inactive)	> 100 µM (inactive)	> 100 µM (inactive)	20.5 µM (inactive)	24.7 µM (inactive)	> 100 µM (inactive)
COc1ccc(/N=N/c2c(O)ccc3ccccc23)cc1	32.9 µM (inactive)	26.1 µM (inactive)	28.6 µM (inactive)	> 100 µM (inactive)		28.2 µM (inactive)	15.4 µM (inactive)	8.2 µM (inactive)	> 100 µM (inactive)	17.5 µM (inactive)	17 µM (inactive)	> 100 µM (inactive)	15.6 µM (inactive)	> 100 µM (inactive)		13.2 µM (inactive)	24.5 µM (inactive)	23 µM (inactive)	14.8 µM (inactive)
NC(=S)NS(=O)(=O)c1ccc(Cl)cc1	> 100 µM (inactive)	> 100 µM (inactive)	> 100 µM (inactive)	> 100 µM (inactive)		> 100 µM (inactive)	> 100 µM (inactive)	> 100 µM (inactive)	> 100 µM (inactive)	> 100 µM (inactive)	> 100 µM (inactive)	> 100 µM (inactive)	> 100 µM (inactive)	> 100 µM (inactive)	> 100 µM (inactive)	> 100 µM (inactive)	> 100 µM (inactive)	> 100 µM (inactive)	
CC(C)(CO)N1CCN(C(S)=Nc2ccccc2)CC1	> 100 µM (inactive)	> 100 µM (inactive)	> 100 µM (inactive)	> 100 µM (inactive)	> 100 µM (inactive)	> 100 µM (inactive)	> 100 µM (inactive)	> 100 µM (inactive)	> 100 µM (inactive)	> 100 µM (inactive)	> 100 µM (inactive)	> 100 µM (inactive)	> 100 µM (inactive)		> 100 µM (inactive)	> 100 µM (inactive)	> 100 µM (inactive)	> 100 µM (inactive)	
